Measurements published in patent US20240294550A1, “8-OXA-3-AZABICYCLO[3.2.1]OCTANE COMPOUNDS OR SALT THEREOF, AND PREPARATION METHOD AND USE THEREOF” (LITTDD MEDICINES LTD, priority 2021, published 2024).
Read-outs that look alike come from different tables or passages of the source.

Experiments:
[1] = Pharmacokinetic (PK) assay in mice; format: in vivo; details: CD-1 mice; for AUC(0-t): read-out: AUC0-24 h
Protocol: The PK of each compound was determined as follows: 6 CD-1 mice (obtained from Shanghai Lingchang Biotechnology Co., Ltd.) were divided into two groups, 3 mice in each group. […] Blood samples were collected from saphenous vein of lower leg in each group at 0, 0.083, 0.25, 0.5, 1, 2, 4, 6, 8 and 24 h after administration. Approximately 40 μL of the blood samples were collected in anticoagulant tubes containing EDTA-K2. Immediately after collection, the tubes were inverted at least 5 times to ensure adequate mixing, and then placed on ice. The blood samples collected at each time point were centrifuged at 4° C., 8000 rpm for 5 minutes to obtain plasma. Another 1.5 mL centrifuge tube was marked with the compound name, animal number, and time point, and the plasma was transferred to this tube. The plasma was stored at −80° C. until analysis.
Compound concentrations in plasma were determined by UPLC-MS/MS method, and the pharmacokinetic parameters were calculated by Phoenix WinNolin 6.4 pharmacokinetic software on the obtained data.

LOVO cells = assay: Cell proliferation assay (CellTiter-Glo); format: cell-based; details: Homo sapiens, 96 hours
Protocol: The cell proliferation inhibition effect of the compound of the invention was tested using CellTiter-Glo™ cell viability assay kit. This kit uses luciferase as the detector. During the luminescence process, the luciferase requires the participation of ATP. CellTiter-Glo™ reagent was added to the cell culture medium, and the luminescence value was measured. The light signal is proportional to the amount of ATP present in the system, and ATP positively correlates with the number of viable cells present, thus the cell proliferation activity is measured.
Cell culture and seeding: LOVO cells in logarithmic growth phase (human colon carcinoma cells) (ATCC CCL-229) were harvested and counted using a platelet counter. Trypan blue exclusion method was used to detect the cell viability to ensure that the cell viability was above 90%. 90 μL of cell suspension (RPMI1640+10% fetal bovine serum) was added to a 96-well transparent flat-bottom black-wall plate (Thermo, 165305) respectively, and the cell concentration was adjusted to 3000/well/90 μl. Cells in the 96-well plate were incubated overnight at 37° C., 5% CO2 with 95% humidity (Thermo, Model 3100 Series).
Firstly, DMSO was used as the solvent to prepare 10 mM mother solution of the test compounds, and then PBS was used to dilute 100 times to prepare a solution of 10 times of final concentration, the highest concentration was 100 μM. 10 μL solution of the test compounds was added to each well of the 96 well plate inoculated with cells, namely the solution was further diluted 10 times to reach the final concentration of 10 μM. Starting from 10 μM, the final concentration of the test compound was 3-fold serially diluted, with 9 concentrations in total with 3 triplicates for each concentration. The 96 well plates with the test compounds and cells were incubated at 37° C., 5% CO2 and 95% humidity for 96 hours, and then CellTiter Glo analysis was performed.
CellTiter-Glo Reagents (CellTiter Glo R Luminescent Cell Viability Assay, Promega, G7572) were melted and the 96-well plates were equilibrated to room temperature for 30 minutes. An equal volume of CellTiter-Glo solution was added to each well, and the cells were lysed by shaking on the fixed orbit shaker for 5 minutes. The assay plates were left at room temperature for 20 minutes to stabilize the luminescence signal, and the luminescence signals were read using the SpectraMax multi-labeled microplate detector (MD, M3).
Data were analyzed using GraphPad Prism 7.0 software, fitted with non-linear S-curve regression to derive the dose-response curves, and IC50 values were calculated therefrom.
Cell survival rate (%)=(LumDrug to be tested−LumCulture medium control)/(LumCell control−LumCulture medium control)×100%

ATR = ATR (Homo sapiens (Human), UniProt Q13535); assay: ATR kinase inhibition assay (HTRF); format: biochemical; details: p53 substrate, ATP 150 nM
Sequence of ATR (Q13535 whole entry): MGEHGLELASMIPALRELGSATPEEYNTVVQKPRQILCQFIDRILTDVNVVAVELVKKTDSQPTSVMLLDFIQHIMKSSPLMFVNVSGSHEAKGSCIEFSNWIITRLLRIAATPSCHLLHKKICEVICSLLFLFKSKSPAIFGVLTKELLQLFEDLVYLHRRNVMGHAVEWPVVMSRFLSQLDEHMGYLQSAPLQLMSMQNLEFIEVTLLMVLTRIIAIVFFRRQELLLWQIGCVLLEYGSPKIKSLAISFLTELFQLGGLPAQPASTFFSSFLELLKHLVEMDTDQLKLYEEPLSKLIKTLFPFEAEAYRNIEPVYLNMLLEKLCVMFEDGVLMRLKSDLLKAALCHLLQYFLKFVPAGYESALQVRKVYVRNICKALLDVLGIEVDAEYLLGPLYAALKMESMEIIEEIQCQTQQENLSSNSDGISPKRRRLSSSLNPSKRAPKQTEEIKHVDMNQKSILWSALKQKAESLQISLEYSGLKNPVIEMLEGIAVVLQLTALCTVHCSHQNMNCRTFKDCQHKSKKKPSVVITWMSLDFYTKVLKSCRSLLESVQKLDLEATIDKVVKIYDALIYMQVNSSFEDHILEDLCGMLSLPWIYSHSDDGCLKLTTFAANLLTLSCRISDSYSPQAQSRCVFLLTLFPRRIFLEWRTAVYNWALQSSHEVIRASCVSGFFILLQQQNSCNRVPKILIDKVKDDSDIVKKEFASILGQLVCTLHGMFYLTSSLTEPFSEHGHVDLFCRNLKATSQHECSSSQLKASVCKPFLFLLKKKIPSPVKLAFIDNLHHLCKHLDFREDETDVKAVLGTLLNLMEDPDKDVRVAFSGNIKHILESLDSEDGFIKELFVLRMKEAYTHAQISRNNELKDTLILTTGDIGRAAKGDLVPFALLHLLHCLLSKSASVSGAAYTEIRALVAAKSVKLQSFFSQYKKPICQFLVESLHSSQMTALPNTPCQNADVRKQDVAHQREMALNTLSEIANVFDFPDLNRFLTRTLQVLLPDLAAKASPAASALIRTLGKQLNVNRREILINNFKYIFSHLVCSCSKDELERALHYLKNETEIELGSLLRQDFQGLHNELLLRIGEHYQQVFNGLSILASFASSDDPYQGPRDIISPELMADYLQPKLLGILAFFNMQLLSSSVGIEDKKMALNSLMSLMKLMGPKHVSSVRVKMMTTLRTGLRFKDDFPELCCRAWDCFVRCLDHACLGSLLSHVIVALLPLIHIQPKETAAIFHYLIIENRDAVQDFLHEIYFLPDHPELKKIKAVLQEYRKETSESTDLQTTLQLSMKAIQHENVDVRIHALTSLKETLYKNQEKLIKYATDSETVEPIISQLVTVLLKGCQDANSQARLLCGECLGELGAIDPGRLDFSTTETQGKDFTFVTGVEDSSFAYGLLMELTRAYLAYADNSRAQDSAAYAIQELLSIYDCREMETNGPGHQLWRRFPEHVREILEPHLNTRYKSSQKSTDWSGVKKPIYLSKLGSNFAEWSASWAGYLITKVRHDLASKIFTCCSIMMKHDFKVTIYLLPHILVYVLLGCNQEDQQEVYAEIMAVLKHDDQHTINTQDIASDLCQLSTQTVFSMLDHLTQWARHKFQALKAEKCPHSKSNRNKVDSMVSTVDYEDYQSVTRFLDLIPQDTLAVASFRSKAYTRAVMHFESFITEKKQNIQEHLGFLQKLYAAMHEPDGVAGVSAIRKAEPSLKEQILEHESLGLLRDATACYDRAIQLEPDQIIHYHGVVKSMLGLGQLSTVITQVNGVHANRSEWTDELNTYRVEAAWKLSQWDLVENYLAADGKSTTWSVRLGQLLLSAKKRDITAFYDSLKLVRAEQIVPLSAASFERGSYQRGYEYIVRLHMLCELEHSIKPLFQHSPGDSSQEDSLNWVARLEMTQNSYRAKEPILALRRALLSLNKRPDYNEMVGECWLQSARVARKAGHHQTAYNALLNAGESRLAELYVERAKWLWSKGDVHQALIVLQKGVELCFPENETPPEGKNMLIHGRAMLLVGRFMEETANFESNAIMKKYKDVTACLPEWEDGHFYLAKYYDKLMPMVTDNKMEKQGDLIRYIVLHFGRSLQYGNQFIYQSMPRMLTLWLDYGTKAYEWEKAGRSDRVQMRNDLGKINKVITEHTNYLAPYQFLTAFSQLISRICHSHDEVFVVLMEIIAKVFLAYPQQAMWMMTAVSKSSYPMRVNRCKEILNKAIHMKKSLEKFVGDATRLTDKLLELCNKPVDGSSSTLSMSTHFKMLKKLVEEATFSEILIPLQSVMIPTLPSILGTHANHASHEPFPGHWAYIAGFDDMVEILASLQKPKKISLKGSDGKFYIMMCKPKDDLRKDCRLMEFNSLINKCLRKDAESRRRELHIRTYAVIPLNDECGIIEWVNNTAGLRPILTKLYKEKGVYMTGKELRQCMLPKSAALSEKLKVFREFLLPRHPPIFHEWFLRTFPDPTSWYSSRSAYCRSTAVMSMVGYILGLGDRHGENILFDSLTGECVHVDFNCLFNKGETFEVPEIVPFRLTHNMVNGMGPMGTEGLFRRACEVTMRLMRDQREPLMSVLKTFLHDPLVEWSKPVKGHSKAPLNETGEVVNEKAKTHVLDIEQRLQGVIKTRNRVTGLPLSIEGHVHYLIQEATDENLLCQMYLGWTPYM
Sequence of ATR (Q8WXE1 whole entry partner): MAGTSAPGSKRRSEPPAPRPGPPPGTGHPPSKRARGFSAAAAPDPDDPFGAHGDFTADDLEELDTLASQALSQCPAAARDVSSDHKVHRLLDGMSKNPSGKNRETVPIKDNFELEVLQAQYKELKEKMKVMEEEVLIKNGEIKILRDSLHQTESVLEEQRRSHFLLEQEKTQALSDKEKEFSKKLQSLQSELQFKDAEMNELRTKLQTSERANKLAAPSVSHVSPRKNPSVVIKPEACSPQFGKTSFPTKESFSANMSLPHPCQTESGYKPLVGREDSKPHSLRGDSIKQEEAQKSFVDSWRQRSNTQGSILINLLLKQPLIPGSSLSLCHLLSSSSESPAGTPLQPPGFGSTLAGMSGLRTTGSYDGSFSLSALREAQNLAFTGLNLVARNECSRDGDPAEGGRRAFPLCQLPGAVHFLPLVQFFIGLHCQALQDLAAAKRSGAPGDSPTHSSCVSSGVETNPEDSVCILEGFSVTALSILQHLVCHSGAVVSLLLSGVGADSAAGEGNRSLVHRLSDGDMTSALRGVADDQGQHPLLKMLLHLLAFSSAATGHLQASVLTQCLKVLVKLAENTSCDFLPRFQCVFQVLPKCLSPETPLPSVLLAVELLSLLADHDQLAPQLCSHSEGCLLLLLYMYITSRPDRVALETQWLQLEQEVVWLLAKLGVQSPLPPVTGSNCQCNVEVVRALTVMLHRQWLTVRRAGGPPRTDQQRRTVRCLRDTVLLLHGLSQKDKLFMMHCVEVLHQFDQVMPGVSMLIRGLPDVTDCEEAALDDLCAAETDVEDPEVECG

CL_obs ([1]; IV dose 1 mg/kg): 18.3 mL/min/kg | half-life ([1]; mouse, plasma, IV dose 1 mg/kg): 1.51 h | Vd ([1]; mouse, plasma, IV dose 1 mg/kg, read-out: Vss): 1.68 L/kg | half-life ([1]; mouse, plasma, Po dose 5 mg/kg): 2.57 h | bioavailability ([1]; mouse, plasma, Po dose 5 mg/kg vs IV dose 1 mg/kg): 75.6% | C0 ([1]; mouse, IV dose 1 mg/kg, plasma): 823 ng/mL | AUC(0-t) ([1]; mouse, IV dose 1 mg/kg, plasma): 925 ng·h/mL | Cmax ([1]; mouse, Po dose 5 mg/kg, plasma): 1080 ng/mL | AUC(0-t) ([1]; mouse, Po dose 5 mg/kg, plasma): 3440 ng·h/mL | IC50 (LOVO cells): 304 nM | IC50 (ATR): 17.4 nM
SMILES: C[C@@H]1COCCN1c1cc(N2CC3CCC(C2)O3)nc2c(-c3cc[nH]n3)cnn12 [Example 1, 3-(7-((R)-3-methylmorpholino)-3-(1H-pyrazol-3-yl)pyrazolo[1,5-a]pyrimidin-5-yl)-8-oxa-3-azabicyclo[3.2.1]octane]
